The text below walks through data of article PMC6675120, “Potent and selective inhibitors for M32 metallocarboxypeptidases identified from high-throughput screening of anti-kinetoplastid chemical boxes” (PLoS Neglected Tropical Diseases, 2019).

Molecules are shown by their SMILES.

In one data set the test system is HepG2. More on the design: method as in https://pubchem.ncbi.nlm.nih.gov/compound/91800813. The following applies: ref https://pubchem.ncbi.nlm.nih.gov/compound/91800813, read-out: cytotoxicity IC50; cited from earlier work.
The target of the next data set is TbMCP-1 (Trypanosoma brucei, UniProt Q386R0). The data set is described as follows: Continuous fluorogenic (FRET) TbMCP-1 assay with Abz-RFFK(Dnp)-OH, primary and secondary screening. Type of data set: biochemical.

The IC50 is the concentration that inhibits the measured activity by half. A word on the inhibition: it is the drop in the measured response relative to a control, in per cent.

Chain of TbMCP-1 (Q386R0 entry or part of it): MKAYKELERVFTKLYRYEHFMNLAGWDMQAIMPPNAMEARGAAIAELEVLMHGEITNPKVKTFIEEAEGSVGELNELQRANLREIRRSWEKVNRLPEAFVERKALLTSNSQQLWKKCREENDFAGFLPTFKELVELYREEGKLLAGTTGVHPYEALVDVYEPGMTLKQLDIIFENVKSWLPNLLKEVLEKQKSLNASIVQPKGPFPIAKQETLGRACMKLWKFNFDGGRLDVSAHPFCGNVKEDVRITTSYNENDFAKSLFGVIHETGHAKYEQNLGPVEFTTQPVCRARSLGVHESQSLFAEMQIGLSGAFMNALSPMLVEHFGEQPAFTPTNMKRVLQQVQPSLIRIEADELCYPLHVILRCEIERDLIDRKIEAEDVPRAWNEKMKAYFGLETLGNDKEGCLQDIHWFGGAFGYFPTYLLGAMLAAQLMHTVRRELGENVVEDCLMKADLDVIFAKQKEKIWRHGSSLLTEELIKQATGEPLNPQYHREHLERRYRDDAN

`N#Cc1ccc(S(=O)(=O)N2CCN(Cc3cccc(-c4ccncc4)c3)CC2)cc1` [TCMDC-143620]: the IC50 in the data set with HepG2 was above 100 µM. Further, at TbMCP-1 (TbMCP-1 vs TcMCP-1), the “potency on TbMCP-1 lower than on TcMCP-1” value is reported as ~ 7 fold. On TbMCP-1 (four-parameter Hill fit of dose-response curve), the “TbMCP-1 Hill Slope” value was -1,461. The “TbMCP-1 2º/1º ratio” value at TbMCP-1 (secondary (31,5 µM) / primary (25 µM) inhibition) is 2,14. Besides, the inhibition at 25 µM on TbMCP-1 (single inhibitor concentration 25 µM, read-out: TbMCP-1 Primary screening Inhibition (%)) turned out to be 45.2%. Also, the inhibition at TbMCP-1 (single inhibitor concentration 31,5 µM) amounted to 96.6%.
